Data from patent US11845938B2, “Aptamer compositions and the use thereof” (City of Hope, priority 2016, dated 2023).
Entries after “also recorded” stand apart in the source; their conditions may differ.

What was measured:
[1] = bypassing dCK deficiency, reference [5]; cited from earlier work
PANC-1 cells [2] = assay: Live-cell confocal imaging, aptamer internalization; format: cell-based; conditions: Cy3-labeled RNAs at 200 nM, 2 hour, confocal microscopy
Protocol: FIGS. 2A-2D. Cell proliferation assay of dFdC-P19-ApDC and 5FdU-P19-ApDC. (FIGS. 2A-2B) The pancreatic cell lines PANC-1 were treated with 200 nM of the Cy3-labeled dFdCMP-P19-ApDC (FIG. 2A) or 5FdUMP-P19-ApDC (FIG. 2B) and analyzed by confocal microscopy. […] Dyes: Cy3 labeled RNAs, Hoechst 33342. Scale bar: […]. (FIG. 2C) After treatment dFdCMP-P19-ApDC or 5FdUMP-P19-ApDC in PANC-1 cells for 72 hrs, cell viability was measured by MTT assay. One-way ANOVA test: ****≤0.0001, ***≤0.001. (FIG. 2D) After treatment dFdCMP-P19-ApDC or 5FdUMP-P19-ApDC in chemo-resistance AsPC-1 cells for 72 hrs, cell viability was measured by MTT assay. One-way ANOVA test: ****≤0.0001, ***≤0.001
(§1) FIGS. 4A-4C. Binding affinity and cell internalization of truncated P19 (tP19). (FIG. 4A) The dissociation constant (KD) was measured by flow cytometry using increasing concentrations of Cy3-labeled aptamers (from 15.6 to 500 nM). Mean fluorescence intensity (MFI) was measured and calculated using a one-site binding model for non-linear regression. […] (FIG. 4B) The pancreatic cell lines PANC-1 and AsPC-1 were treated with 200 nM of the Cy3-labeled tP19 aptamer and analyzed by confocal microscopy. […] (FIG. 4C) Non pancreatic lines including Huh7, HepG2, MCF7 and PC3 cells were also treated with 200 nM of Cy3-labeled tP19 and P1 aptamers. […] Dye Hoechst 33342. Scale bar: 10 μm.
FIGS. 5A-5D. […]

PANC-1 cells [3] = assay: Flow cytometry-based binding assay, apparent dissociation constant (KD) of Cy3-labeled aptamers; conditions: flow cytometry MFI, one-site binding model, read-out: binding affinity (dissociation constant, KD)
Protocol: FIGS. 1A-1D. ApDCs of gemcitabine and 5-FU. (FIG. 1A) Chemical structure of gemcitabine and 5-FU prodrug (5F-dUTP). (FIG. 1B) The sequence of P19 incorporated with dFdCMP (dFdCTP) (SEQ ID NO: 18) and 5FdUMP (5FdUTP) (SEQ ID NO: 19) into P19, instead of 2′F-CTP and 2′F-UTP. (FIG. 1C) Intrinsic incorporation of active metabolites of gemcitabine (dFdCMP) and 5FdUMP in P19. M: Marker. 1:P19, 2: P19-dFdCMP, 3:P19-5FdUMP. (FIG. 1D) The dissociation constant (KD) was measured by flow cytometry using increasing concentrations of Cy3-labeled aptamers (from 15.6 to 1000 nM). Mean fluorescence intensity (MFI) was measured and calculated using a one-site binding model for non-linear regression.
FIGS. 4A-4C. […] Mean fluorescence intensity (MFI) was measured and calculated using a one-site binding model for non-linear regression. […] (FIG. 4B) The pancreatic cell lines PANC-1 and AsPC-1 were treated with 200 nM of the Cy3-labeled tP19 aptamer and analyzed by confocal microscopy. […]
Aptamer binding and uptake was also assessed by flow cytometry. […] Cells were washed with binding buffer and immediately analyzed by Fortessa flow cytometry (BD). […] The data were analyzed with FlowJo software.
To determine the apparent dissociation constant (KD) of aptamers to PANC-1 cells, the mean fluorescence intensity (MFI) was calculated for each concentration and for the unselected library controls. […]

[4] = tested on: Huh7, HepG2, MCF7 and PC3 cells; assay: Live-cell confocal imaging, aptamer internalization in non pancreatic lines; format: cell-based; conditions: 200 nM Cy3-labeled aptamer
Protocol: as §1
(§2) For the aptamer internalization studies, 1×10^5 cells were seeded in 35 mm glass-bottom dishes (MatTek, Ashland, Mass., USA) and grown in medium for 24 hrs. The RNAs were labeled with Cy3 using the Cy3 Silencer siRNA labeling kit (Ambion, Tex., USA.). Cy3-labeled RNAs were added to the cells at 200 nM or 500 nM and incubated for 2 hour. The images were taken using a Zeiss LSM 510 Meta Inverted 2 photon confocal microscope system using a C-Apo 40x/1.2NA water immersion objective.

AsPC-1 cells = assay: Live-cell confocal imaging, aptamer internalization; format: cell-based; conditions: 200 nM Cy3-labeled aptamer, confocal microscopy
Protocol: as §1, §2

gemcitabine monophosphate [dFdCMP]
effectiveness relative to dFdC [1]: 4 fold

tP19: truncated form of aptamer P19, SEQ ID NO: 3, 28 bps in length, mHSP70 binding aptamer (CUCAAUGGCGAAUGCCCGCCUAAUAGGG; listed as RNA, chemistry not fully specified)
internalization into PANC-1 cells (PANC-1 cells [2]): internalized into PANC-1 and AsPC-1 cells
Kd (PANC-1 cells [3]): 8.57 nM
internalization (Cy3 signal) in non-pancreatic cancer cell lines [4]: No Cy3 signal was observed; also recorded: not in non-pancreatic cancer cell lines
internalization into AsPC-1 cells (AsPC-1 cells): internalized into PANC-1 and AsPC-1 cells

B1: P1: RNA aptamer SEQ ID NO: 1, mHSP70 binding aptamer internalizing upon binding mHSP70 at the cell surface (nucleic acid)
chain: GGGAGACAAGAAUAAACGCUCAAUGCGCUGAAUGCCCAGCCGUGAAAGCGUCGAUUUCCAUCCUUCGACAGGAGGCUCACAACAGGC
modifications: listed as RNA, chemistry not fully specified
internalization (Cy3 signal) in non-pancreatic cancer cell lines [4]: No Cy3 signal was observed
